{"source": "ChEMBL document CHEMBL5584321", "about": "“Chemoenzymatic Synthesis of DNP-Functionalized FGFR1-Binding Peptides as Novel Peptidomimetic Immunotherapeutics for Treating Lung Cancer” (J Med Chem, 2024)", "key": {"NCI-H1581": {"system": "NCI-H1581", "assay": "Binding affinity to FGFR1c in human NCI-H1581 cells assessed as increase in green fluorescence signal incubated for 1 hr by Alexa-488 staining based confocal fluorescence microscopic analysis", "assay_type": "cell-based"}, "[1]": {"assay": "Toxicity in BALB/c mouse xenografted with human NCI-H1581 cells assessed as inflammation in spleen at 20 mg/kg,SC administrated once daily for 12 days by hematoxylin and eosin staining based analysis", "assay_type": "organism-based", "settings": "in vivo, 288 h, time 12 day"}, "[2]": {"assay": "Toxicity in BALB/c mouse xenografted with human NCI-H1581 cells assessed as cell necrosis in kidney at 20 mg/kg,SC administrated once daily for 12 days by hematoxylin and eosin staining based analysis", "assay_type": "organism-based", "settings": "in vivo, 288 h, time 12 day"}, "[3]": {"assay": "Tmax in immunized Sprague-Dawley rat at 1.5 mg/kg,SC administration measured upto 24 hrs by fluorescence based microplate reader assay", "assay_type": "ADME, organism-based", "settings": "in vivo"}, "[4]": {"assay": "Hepatotoxicity in BALB/c mouse xenografted with human NCI-H1581 cells assessed as change in AST level at 20 mg/kg,SC administrated once daily for 12 days", "assay_type": "toxicity, organism-based", "settings": "in vivo, 288 h, time 12 day"}, "[5]": {"assay": "Toxicity in BALB/c mouse xenografted with human NCI-H1581 cells assessed as change in kidney weight at 20 mg/kg,SC administrated once daily for 12 days", "assay_type": "organism-based", "settings": "in vivo, 288 h, time 12 day"}, "L6 [6]": {"system": "L6", "assay": "Induction of apoptosis in FGF2-induced rat L6 cells stably expressing human full-length FGFR1c assessed as upregulation of cleaved caspase-3 expression at 50 uM incubated for 24 hrs by Western blotting analysis", "assay_type": "functional, cell-based"}, "[7]": {"assay": "Toxicity in BALB/c mouse xenografted with human NCI-H1581 cells assessed as inflammation in liver at 20 mg/kg,SC administrated once daily for 12 days by hematoxylin and eosin staining based analysis", "assay_type": "organism-based", "settings": "in vivo, 288 h, time 12 day"}, "[8]": {"assay": "Toxicity in BALB/c mouse xenografted with human NCI-H1581 cells assessed as change in body weight at 20 mg/kg,SC administrated once daily for 12 days", "assay_type": "organism-based", "settings": "in vivo, 288 h, time 12 day"}, "L6 [9]": {"system": "L6", "assay": "Induction of cell lysis in rat L6 cells stably expressing human full-length FGFR1c at 1 uM incubated for 1 hr by complement dependent cytotoxicity based CCK-8 assay relative to control", "assay_type": "functional"}}, "note": "The source made the active and inactive calls. The rule behind the calls is not given here. Where a SMILES comes first, the peptide text is derived from it. The star is where a group is joined. X1 = O=[N+]([O-])c1ccc(OCCOCCOCCOCCOCCOCCN*)c([N+](=O)[O-])c1", "data": [{"smiles": "CC(C)C[C@H](NC(=O)[C@H](C)NC(=O)[C@@H](NC(=O)[C@H](Cc1ccc(O)cc1)NC(=O)[C@H](Cc1c[nH]c2ccccc12)NC(=O)[C@H](CO)NC(=O)[C@H](CO)NC(=O)[C@H](Cc1ccc(O)cc1)NC(=O)[C@H](CCCCN)NC(=O)[C@H](CCCNC(=N)N)NC(=O)[C@H](CO)NC(=O)[C@H](CCCNC(=N)N)NC(=O)[C@@H](N)Cc1ccc(O)cc1)C(C)C)C(=O)N[C@@H](CCCCN)C(=O)N[C@@H](CCCNC(=N)N)C(=O)N[C@@H](CC(C)C)C(=O)N1CCC[C@H]1C(=O)N[C@@H](CCC(=O)O)C(=O)N[C@H](C(=O)NCC(=O)NCC(=O)NCC(=O)NCCOCCOCCOCCOCCOCCOc1ccc([N+](=O)[O-])cc1[N+](=O)[O-])[C@@H](C)O", "note": "(H-YRSRKYSSWYVALKRLPETGGG-X1)", "values": [{"measurement": "Activity", "setting": "NCI-H1581", "result": "Active"}, {"measurement": "Activity", "setting": "[1]", "result": "Non-Toxic"}, {"measurement": "Activity", "setting": "[2]", "result": "Non-Toxic"}, {"measurement": "Tmax", "setting": "[3]", "result": 1.67, "unit": "h"}, {"measurement": "Activity", "setting": "[4]", "result": "Non-Toxic"}, {"measurement": "Activity", "setting": "[5]", "result": "Non-Toxic"}, {"measurement": "Activity", "setting": "L6 [6]", "result": "Active"}, {"measurement": "Activity", "setting": "[7]", "result": "Non-Toxic"}, {"measurement": "Activity", "setting": "[8]", "result": "Non-Toxic"}, {"measurement": "Activity", "setting": "L6 [9]", "result": 45.8, "unit": "%"}]}]}
